# Test results as given in the supplement of paper PMC10307832.
# Columns and labels:
# Assay in all cases: relative viability (nuclei count vs DMSO), 5 days (fraction); higher = more cells survive
# Wnt-C59 + Pictilisib = compound: CC1=NC=CC(=C1)C2=CC=C(C=C2)CC(=O)NC3=CC=C(C=C3)C4=CN=CC=C4 [Wnt-C59] + CS(=O)(=O)N1CCN(Cc2cc3nc(-c4cccc5[nH]ncc45)nc(N4CCOCC4)c3s2)CC1 [Pictilisib] (partner 1 µM)
# Procedure, shortened: (§1)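 Values are medians from duplicate plates. Each reflects relative viability, defined as the nuclei count of treated wells over that of vehicle wells. Lung cancer cell lines in 1536-well plates were pin-tool dosed one day after seeding with one drug alone or with a fixed anchor-drug dose plus five library-drug doses (not always all listed) in √10 steps, then fixed, stained and imaged at 4× after 5 days.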
# Wnt-C59 + Tozasertib = compound: CC1=NC=CC(=C1)C2=CC=C(C=C2)CC(=O)NC3=CC=C(C=C3)C4=CN=CC=C4 [Wnt-C59] + Cc1cc(Nc2cc(N3CCN(C)CC3)nc(Sc3ccc(NC(=O)C4CC4)cc3)n2)n[nH]1 [Tozasertib] (partner 0.1 µM)
# Procedure, shortened: as §1
# Lapatinib + Trametinib = compound: CS(=O)(=O)CCNCc1ccc(-c2ccc3ncnc(Nc4ccc(OCc5cccc(F)c5)c(Cl)c4)c3c2)o1 [Lapatinib] + CC(=O)Nc1cccc(-n2c(=O)n(C3CC3)c(=O)c3c(Nc4ccc(I)cc4F)n(C)c(=O)c(C)c32)c1 [Trametinib] (partner 0.02 µM)
# Procedure, shortened: as §1
# Wnt-C59 + Alpelisib = compound: CC1=NC=CC(=C1)C2=CC=C(C=C2)CC(=O)NC3=CC=C(C=C3)C4=CN=CC=C4 [Wnt-C59] + Cc1nc(NC(=O)N2CCC[C@H]2C(N)=O)sc1-c1ccnc(C(C)(C)C(F)(F)F)c1 [Alpelisib] (partner 2 µM)
# Procedure, shortened: as §1
Cell Line,relative viability (Wnt-C59 + Pictilisib; first compound 0.001 µM),relative viability (Wnt-C59 + Pictilisib; first compound 0.01 µM),relative viability (Wnt-C59 + Pictilisib; first compound 0.03162 µM),relative viability (Wnt-C59 + Pictilisib; first compound 0.1 µM),relative viability (Wnt-C59 + Tozasertib; first compound 0.001 µM),relative viability (Wnt-C59 + Tozasertib; first compound 0.01 µM),relative viability (Wnt-C59 + Tozasertib; first compound 0.03162 µM),relative viability (Wnt-C59 + Tozasertib; first compound 0.1 µM),relative viability (Lapatinib + Trametinib; first compound 0.02 µM),relative viability (Lapatinib + Trametinib; first compound 0.06325 µM),relative viability (Lapatinib + Trametinib; first compound 0.2 µM),relative viability (Lapatinib + Trametinib; first compound 0.6325 µM),relative viability (Lapatinib + Trametinib; first compound 2 µM),relative viability (Wnt-C59 + Alpelisib; first compound 0.001 µM),relative viability (Wnt-C59 + Alpelisib; first compound 0.01 µM),relative viability (Wnt-C59 + Alpelisib; first compound 0.03162 µM),relative viability (Wnt-C59 + Alpelisib; first compound 0.1 µM)
NCI-H1755,0.374,0.433,0.459,0.433,0.647,0.528,0.646,0.534,0.77,0.729,0.792,0.793,0.717,0.932,0.891,0.907,0.908
NCI-H1793,0.215,0.22,0.3,0.444,0.309,–,0.302,0.345,–,0.416,0.469,0.406,0.394,0.827,0.536,0.898,0.668
NCI-H1915,0.97,0.922,0.837,0.958,0.471,0.404,0.508,0.457,–,0.29,0.3,0.292,0.304,1.07,1.01,1.07,1.03
NCI-H1944,0.372,0.312,0.322,0.336,0.237,0.261,0.263,0.246,0.41,0.35,0.388,0.322,0.288,0.767,0.755,0.785,0.755
NCI-H1975,0.282,0.294,0.326,0.282,0.789,0.705,0.776,0.744,0.264,0.282,0.328,0.384,0.254,0.67,0.591,0.707,0.704
NCI-H1993,0.979,0.833,0.902,0.84,0.607,–,0.515,0.633,0.458,–,0.57,0.496,0.477,0.763,0.642,0.682,0.708
NCI-H2009,0.744,0.825,0.841,0.784,0.805,0.798,0.72,0.726,0.266,0.236,0.295,0.294,0.268,1.15,1.16,1.14,1.18
NCI-H2023,0.27,0.244,0.238,0.235,0.406,0.332,0.352,0.356,–,0.397,0.429,0.433,0.328,0.627,0.622,0.656,0.508
NCI-H2085,0.502,0.449,0.41,0.45,0.807,0.795,0.831,0.824,0.404,0.56,0.511,0.559,0.452,0.998,0.97,0.888,0.904
NCI-H2087,0.94,0.816,0.819,0.907,0.274,0.235,0.255,0.291,0.208,0.186,0.182,0.217,0.191,1.18,1.05,0.996,1.05
NCI-H2126,0.451,0.446,0.489,0.479,0.882,0.876,0.874,0.82,0.536,0.417,0.467,0.533,0.402,0.742,0.703,0.788,0.723
NCI-H2170,0.3,0.279,0.309,0.383,0.721,0.641,0.852,0.602,0.874,0.82,0.792,0.683,0.238,0.813,0.675,0.987,0.841
NCI-H2228,0.479,0.505,0.573,0.252,0.31,0.322,0.264,0.23,0.112,0.441,0.609,0.583,0.27,0.816,0.74,0.929,0.751
NCI-H2347,0.628,0.566,0.86,0.634,0.581,0.453,0.446,0.618,0.298,0.236,0.278,0.302,0.281,0.936,1.01,0.9,0.984
NCI-H2405,0.433,–,0.406,0.432,0.729,0.672,0.778,0.699,–,0.409,–,0.52,0.438,0.89,–,0.646,0.789
NCI-H3122,0.61,0.642,0.626,0.518,0.409,0.386,0.401,0.377,0.256,0.203,0.207,0.218,0.248,0.836,0.784,0.872,0.716
PC-3 [JPC-3],0.832,0.765,0.822,0.72,0.935,0.922,0.984,0.911,–,0.675,–,0.721,0.412,1.02,1.05,1.04,1.07
PC-14,0.761,0.665,0.715,0.553,0.663,0.658,0.569,0.619,0.768,0.674,0.796,0.827,0.0695,1.01,0.92,0.995,0.934
RERF-LC-KJ,0.574,0.543,0.627,0.54,0.48,0.561,0.515,0.481,0.854,0.903,0.758,0.792,0.642,0.743,0.764,0.853,0.883
